The solubility is the dissolved amount per volume that the medium holds.

Some results are limits rather than exact numbers.

For one data set, the system named is HBE1 cells. In words: PMA-induced mucin hypersecretion in human bronchial epithelial cells (air/liquid interface, MUC5A ELISA). Type of data set: cell-based. The conditions noted are these: pretreatment with 25 μM peptide, then 0.5 μM PMA. On the procedure:
HBE1 is a papilloma virus-transformed human bronchial epithelial cell line capable of mucin secretion when cultured in air/liquid interface. HBE1 cells were cultured in the air/liquid interface as described previously (Li et al, J. Biol. Chem., volume 276, pp 40982-40990, 2001). Briefly, HBE1 cells were cultured in air/liquid interface by seeding an appropriate number of cells in 12-well Transwell clear culture inserts (Costar, Cambridge, Mass.) that were thinly coated with rat tail collagen, type I (Collaborative Biomedical, Bedford, Mass.). Cells were initially cultured submerged in medium in a humidified 95% air, 5% CO2 environment for 5-7 days until nearly confluent. At that time, the air/liquid interface was created by removing the apical medium and feeding cells basalaterally. Medium was renewed daily thereafter. Cells were cultured for an additional 14 days to allow full differentiation. The accumulated mucin at the apical surface of the cells was removed by washing with phosphate-buffered saline, pH 7.2. To collect the baseline mucin secretion, cells were incubated for 30 min with medium alone and secreted mucin in the apical medium was collected, and quantitated by ELISA. To determine the mucin hypersecretion induced by a mucin secretagogue, cells were exposed to medium containing 0.5 μM phorbol myristate acetate, (PMA) for 30 min. and mucin was collected and quantitated by ELISA. […] Six wells were used for each test peptides and for each control. Secreted mucin in the apical medium was collected and quantitated by sandwich ELISA method using alkaline phosphatase-conjugated mucin (MUC5A) specific antibody (Zymed Laboratories, San Francisco, Calif.).

Data set [1] can be described thus: Stability of test peptides in human BALF (LC/MS/MS, first order half-life). Type of data set: in vitro ADME. The following applies: cerebrospinal or other body fluid, human BALF from COPD patients, 1st experiment, read-out: BALF t1/2 (1st exp.) (converted). On the procedure:
(§1) Various test peptides in human plasma, human BALF, and CF patient mucus were analyzed to determine the susceptability of the test peptide to proteolysis in the biological fluids. […] The samples were analyzed either on the same day as received or stored at −20° C. and analyzed within the following two days.
Samples of BALF collected from COPD patients were obtained and frozen. The BALF samples were thawed, mixed together and centrifuged at 10,000×g for 10 min at 4-8° C. The supernatant (0.9 mL) was spiked with 0.1 mL of 0.5 mg/mL solution of the peptide in 75 mM sodium acetate buffer at pH 7.0 and processed and analyzed as described above.
(§2) All samples were analyzed using LC/MS/MS (MDS/SCIEX, API 4000 Model). Chromatography was performed using a Phenomenex Luna C18 column, while mass spectrometry was performed using positive ion electrospray ionization.
(§3) Calibration standards were analyzed by LCMS at concentrations of 0.100 μg/mL, 1.00 μg/mL, 10.0 μg/mL, and 100 μg/mL for each peptide, with the exception of the calibration standards for peptides myr-PEPTIDE 106, PEPTIDE 106, PEPTIDE 106-NH2, PEPTIDE 106, and cyclic peptide, cyc-PEPTIDE 106, in human mucus, which were analyzed at concentrations of 0.100 μg/mL, 1.00 μg/mL, 10.0 μg/mL, and 75 μg/mL. Standards were prepared in 1% human BALF, plasma, or mucus in 50/50 water/acetonitrile mixture containing 0.2% formic acid. The instrument response values for each set of standards were fit using a 1/(concentration)^2 linear least-squares line. Sample concentrations were calculated using the slope and intercept of this line. Concentrations outside of the calibration range were determined by extrapolating the calibration curve.
Duplicate calibration standards were analyzed at a concentration of 50 μg/mL for each peptide. The instrument response values for each set of standards were fit through an intercept of 0 using an unweighted, linear least-squares line. Sample concentrations were calculated using the slope and intercept of this line.
For the analysis of peptide concentration in BALF samples, one 50 μg/mL calibration standard prepared in a mixture of BALF, water, acetonitrile, and formic acid was analyzed with each sample set.
(§4) Watson fits the log transformed data with a least-squares line to determine parameters such as Cmax (maximum concentration), intercept, rate constant, slope, and T1/2 (half-life). The resulting kinetic parameters were based on the linear fit, not the actual concentration values.
(§5) Time-zero calibration standards in solution were not included as part of the kinetic profiles.

A short description of data set [2]: Qualitative solubility of test peptides in 0.5 N saline. Type of data set: physicochemical. The conditions noted are these: pH 6.5, 20° C. (table title). Put shortly:
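Weighed peptide (1 to 5 mg) titrated with 25 μL aliquots of 0.5 N saline, pH 6.5, at 25° C until dissolution judged visually. Solubility calculated from volume needed; complete dissolution in first aliquot reported as greater than, non-dissolution as less than, the calculated value.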

A short description of data set [3]: Stability of test peptides in human plasma (LC/MS/MS, first order half-life). It is filed as in vitro ADME. The conditions noted are these: human plasma, 37° C. The protocol:
as §1
Fresh human blood samples were collected in citrate buffered vacuutrainers (in absence of EDTA or heparin). Red blood cells (RBC) were removed by centrifugation of the blood at 4000×g for 10 min at 4° C. Plasma aliquots (0.9 mL) were then spiked with 0.1 mL of 0.5 mg/mL solution of the test peptide in 75 mM sodium acetate buffer at pH 7.0 and incubated in a water bath maintained at 37° C. Duplicate aliquots of 10 μL, were withdrawn at 5, 15, 30, 60, and 180 minutes intervals and immediately “quenched” with 990 μL of a solution consisting of 50% acetonitrile+50% water containing 0.2% formic acid. The samples were then subjected to liquid chromatography-mass spectrometry (LCMS) analysis.
as §2
as §3, with “curve. […]” for “curve.”
For the analysis of peptide concentration in plasma, duplicate calibration standards were analyzed at a concentration of 25 μg/mL and 50 μg/mL for each peptide. The instrument response values for each set of standards were fit through an intercept of 0 using an unweighted, linear least-squares line. Sample concentrations were calculated using the slope and intercept of this line. Concentrations outside of the calibration range were determined by extrapolating the calibration curve.
as §4, §5

The mark [4] stands for this setting: 2nd experiment, read-out: Plasma t1/2 (2nd exp.) (converted).

Regarding Ac-GAQFSKTAAK-OH [Ac-peptide 106], the “Block of PMA-induced increase in mucin secretion” value in the data set on HBE1 cells worked out at 100%. In addition, the half-life in data set [1] is 113 min; in data set [3] (setting [4]), 1.8 min. In data set [2], the solubility was more than 100 mg/mL.
Take “H-GAQFSKTAAK-OH [peptide 106, GAQFSKTAAK]”: the half-life in data set [1] was 113 min; in data set [3] (1st experiment, read-out: Plasma t1/2 (1st exp.) (converted)) it was 16.8 min; in data set [3] (setting [4]), 9 min. In addition, the solubility in data set [2] is more than 70 mg/mL.

These data come from patent publication US9598463B2, “Mucin hypersecretion inhibitors and methods of use” (BIOMARCK PHARMACEUTICALS, LTD., priority 2005, dated 2017).
